Assay results from US6436946B1, “Xanthine-containing compositions for oral administration and uses related thereto” (priority 1997, dated 2002).

Legend:
[1] = tested on: subjects; assay: Standard short-term memory test (repeat series of numbers backward); type: in vivo, human; conditions: three of the five subjects, 30 minutes after ingestion
Description: The test consisted of an examiner reading a series of numbers to the subject and the subject subsequently being asked to repeat said numbers backward. In all cases, the test was initiated 30 minutes after ingestion of the composition.

[2] = tested on: subjects; assay: Stimulant effect: score in video game of skill (Pilot Wing); type: in vivo, human; conditions: five subjects, crossover with placebo, 180 mg caffeine, Formulation I
Description: Five subjects were tested over a period of three days. […] Both prior to and after consuming the composition, each subject played a video game of skill called Pilot Wing™ made by Nintendo™.

Cn1c(=O)c2c(ncn2C)n(C)c1=O [caffeine]
digits repeated backwards without error [1]: could not repeat this accomplishment
video game score after consuming the composition [2]: higher scores after consuming the caffeine, compared to consuming the placebo
